Data from ChEMBL document CHEMBL5131517 (ACS Med Chem Lett, 2022).

How the values were obtained:
Format in all cases: functional, cell-based
[1] = molecular target: T1, 5-hydroxytryptamine receptor 2A (Homo sapiens, UniProt P28223); assay: Agonist activity at human 5HT2A receptor stably expressed in Flp-In-T-REx-293 cells assessed as maximal Gq-mediated calcium flux by Fluo-4 direct dye based FLIPR Tetra assay relative to control
[2] = molecular target: T1, 5-hydroxytryptamine receptor 2A; assay: Agonist activity at human 5HT2A receptor stably expressed in Flp-In-T-REx-293 cells assessed as increase in Gq-mediated calcium flux by Fluo-4 direct dye based FLIPR Tetra assay
[3] = molecular target: T2, 5-hydroxytryptamine receptor 2C (Homo sapiens, UniProt P28335); assay: Agonist activity at human 5HT2C receptor stably expressed in Flp-In-T-REx-293 cells assessed as increase in Gq-mediated calcium flux by Fluo-4 direct dye based FLIPR Tetra assay
T2 sequence (P28335 whole entry): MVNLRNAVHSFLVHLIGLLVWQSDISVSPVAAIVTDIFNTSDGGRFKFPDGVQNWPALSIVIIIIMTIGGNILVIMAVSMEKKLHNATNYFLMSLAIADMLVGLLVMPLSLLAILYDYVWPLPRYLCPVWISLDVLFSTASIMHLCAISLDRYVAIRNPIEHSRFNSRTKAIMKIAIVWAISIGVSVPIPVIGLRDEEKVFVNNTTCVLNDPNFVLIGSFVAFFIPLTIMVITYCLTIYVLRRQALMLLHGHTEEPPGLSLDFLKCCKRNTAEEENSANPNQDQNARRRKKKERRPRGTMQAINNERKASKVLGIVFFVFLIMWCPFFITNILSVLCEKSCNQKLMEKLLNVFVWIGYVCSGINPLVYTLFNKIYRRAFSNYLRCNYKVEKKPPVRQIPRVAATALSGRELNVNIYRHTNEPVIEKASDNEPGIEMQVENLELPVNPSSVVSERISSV

[4] = molecular target: T3, 5-hydroxytryptamine receptor 2C (Homo sapiens) (UniProt P28335); assay: Agonist activity at human 5HT2C receptor stably expressed in Flp-In-T-REx-293 cells assessed as maximal Gq-mediated calcium flux by Fluo-4 direct dye based FLIPR Tetra assay relative to control
T3 sequence (whole entry): T2 sequence (P28335 whole entry)

T1 sequence (P28223 whole entry): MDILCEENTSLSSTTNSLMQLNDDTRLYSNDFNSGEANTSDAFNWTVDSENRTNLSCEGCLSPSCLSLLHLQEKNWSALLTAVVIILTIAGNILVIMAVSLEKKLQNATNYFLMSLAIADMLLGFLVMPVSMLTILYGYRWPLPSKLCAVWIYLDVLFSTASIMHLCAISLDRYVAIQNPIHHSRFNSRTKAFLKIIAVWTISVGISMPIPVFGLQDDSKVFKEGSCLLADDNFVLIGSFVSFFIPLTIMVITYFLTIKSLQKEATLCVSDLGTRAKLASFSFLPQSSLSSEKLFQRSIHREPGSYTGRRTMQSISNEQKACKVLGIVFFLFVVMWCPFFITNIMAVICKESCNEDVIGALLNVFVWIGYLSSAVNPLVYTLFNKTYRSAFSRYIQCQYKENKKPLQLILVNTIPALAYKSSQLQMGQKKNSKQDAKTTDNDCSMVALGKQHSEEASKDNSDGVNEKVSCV

SMILES | Emax ([1]; filed as agonist) [%] | EC50 [2] [µM] | EC50 ([3]; read-out: EC50) [µM] | Emax ([4]; filed as agonist) [%] | Emax [1] [%] | Emax [4] [%] | EC50 ([3]; read-out: pEC50 (converted)) [µM]
NCCc1c[nH]c2ccc(O)cc12 | 100 | – | – | – | – | – | –
Fc1ccc2[nH]c3c(c2c1)CCNC3c1ccc2ccccc2c1 (stereo not drawn) | 79.1 | 0.195 | 0.186 | 103 | – | – | –
COc1ccc2cc(C3NCCc4c3[nH]c3ccc(F)cc43)ccc2c1 (stereo not drawn) | – | 2.82 | 3.39 | 76.3 | 30.5 | – | –
Oc1ccc2[nH]c3c(c2c1)CCNC3c1ccccc1O (stereo not drawn) | – | – | – | 103 | 26.9 | – | –
COc1ccccc1C1NCCc2c1[nH]c1ccc(O)cc21 (stereo not drawn) | – | 0.269 | – | – | 21.5 | – | –
CCC1NCCc2c1[nH]c1ccc(O)cc21 (stereo not drawn) | 85.1 | 0.195 | 0.061 | 97.6 | – | – | –
Fc1ccc2[nH]c3c(c2c1)CCNC3C1CCCCC1 (stereo not drawn) | 87.3 | 0.0912 | 0.0204 | 103 | – | – | –
Oc1ccc(C2NCCc3c2[nH]c2ccc(Cl)cc32)c(O)c1 (stereo not drawn) | 91.2 | 0.0015 | 0.0019 | 102 | – | – | –
Oc1ccc(C2NCCc3c2[nH]c2ccc(O)cc32)cc1 (stereo not drawn) | 80 | 0.159 | 0.152 | 99.4 | – | – | –
Oc1ccc2[nH]c3c(c2c1)CCNC3Cc1ccccc1 (stereo not drawn) | 59.2 | 0.288 | 0.481 | 100 | – | – | –
COc1ccccc1C1NCCc2c1[nH]c1ccc(F)cc21 (stereo not drawn) | 43.1 | 0.126 | 0.0754 | 94.3 | – | – | –
CCCC1NCCc2c1[nH]c1ccc(Cl)cc21 (stereo not drawn) | 50.1 | 0.646 | > 10 | – | – | – | –
CCC1NCCc2c1[nH]c1ccc(F)cc21 (stereo not drawn) | 75.4 | 0.597 | 0.2 | 96.2 | – | – | –
Clc1ccc2[nH]c3c(c2c1)CCNC3c1ccc(Br)s1 (stereo not drawn) | 62.4 | 0.912 | 0.447 | 104 | – | – | –
Oc1cccc(C2NCCc3c2[nH]c2ccc(O)cc32)c1 (stereo not drawn) | 93.4 | 0.223 | 0.148 | 95.4 | – | – | –
Fc1ccc2[nH]c3c(c2c1)CCNC3c1cccnc1F (stereo not drawn) | 40.9 | 0.39 | 4.03 | – | – | 30.2 | –
Fc1ccc2[nH]c3c(c2c1)CCNC3Cc1ccccc1 (stereo not drawn) | 44.4 | 1.33 | – | – | – | – | –
Oc1ccc2[nH]c3c(c2c1)CCNC3CCc1ccccc1 (stereo not drawn) | 45.8 | 0.139 | – | – | – | – | –
Cn1ccnc1C1NCCc2c1[nH]c1ccc(O)cc21 (stereo not drawn) | 100 | 0.079 | 0.097 | 87.1 | – | – | –
Oc1ccc2[nH]c3c(c2c1)CCNC3C1CCCCC1 (stereo not drawn) | 74.1 | 0.281 | 0.959 | – | – | 28.4 | –
Fc1ccc2[nH]c3c(c2c1)CCNC3c1ccccc1Cl (stereo not drawn) | – | 0.278 | 0.872 | 88.1 | 28.1 | – | –

SMILES | Emax ([1]; filed as agonist) [%] | EC50 [2] [µM] | EC50 ([3]; read-out: EC50) [µM] | Emax ([4]; filed as agonist) [%] | Emax [1] [%] | Emax [4] [%] | EC50 ([3]; read-out: pEC50 (converted)) [µM]
Fc1ccc2[nH]c3c(c2c1)CCNC3c1cc2ccccc2s1 (stereo not drawn) | 40 | 1.55 | 0.912 | 110 | – | – | –
Fc1ccc2[nH]c3c(c2c1)CCNC3c1ccccc1F (stereo not drawn) | 48.9 | 0.302 | 1.01 | 81 | – | – | –
Fc1ccc2[nH]c3c(c2c1)CCNC3C(c1ccccc1)c1ccccc1 (stereo not drawn) | 92.5 | 1.91 | 0.954 | 103 | – | – | –
Oc1ccc2[nH]c3c(c2c1)CCNC3c1cncnc1 (stereo not drawn) | 89.3 | 0.8 | – | 83.3 | – | – | 2.95
Fc1ccc2[nH]c3c(c2c1)CCNC3CCc1ccccc1 (stereo not drawn) | – | 0.812 | 0.467 | 91.3 | 31.7 | – | –
Cc1ccc(C2NCCc3c2[nH]c2ccc(Cl)cc32)cc1 (stereo not drawn) | 94.1 | 0.303 | 0.0625 | 97.2 | – | – | –
Oc1c(Br)cccc1C1NCCc2c1[nH]c1ccc(F)cc21 (stereo not drawn) | 93.1 | 0.116 | 0.0665 | 109 | – | – | –
COc1cc(OC)c(C2NCCc3c2[nH]c2ccc(O)cc32)cc1OC (stereo not drawn) | 102 | 0.0038 | 0.0076 | 109 | – | – | –
Clc1ccc2[nH]c3c(c2c1)CCNC3c1ccc2ccccc2c1 (stereo not drawn) | 96.5 | 0.0151 | 0.0245 | 102 | – | – | –
Oc1ccc2[nH]c3c(c2c1)CCNC3c1cc(Cl)ccc1O (stereo not drawn) | 47.6 | 1.57 | 0.754 | 97.1 | – | – | –
Fc1ccc2[nH]c3c(c2c1)CCNC3c1ccccc1Br (stereo not drawn) | – | 0.098 | 2.1 | 75.1 | 10.5 | – | –
Clc1ccc2[nH]c3c(c2c1)CCNC3C1CCOCC1 (stereo not drawn) | 42.8 | 0.371 | 0.295 | 63.8 | – | – | –
CCCC1NCCc2c1[nH]c1ccc(F)cc21 (stereo not drawn) | – | > 10 | > 10 | – | – | – | –
Oc1c(Br)cccc1C1NCCc2c1[nH]c1ccc(Cl)cc21 (stereo not drawn) | 97.9 | 0.0745 | 0.0686 | 107 | – | – | –
Fc1ccc2[nH]c3c(c2c1)CCNC3c1nccs1 (stereo not drawn) | – | – | 1.26 | – | – | 39.4 | –
Oc1ccc2[nH]c3c(c2c1)CCNC3c1ccccc1C(F)(F)F (stereo not drawn) | 100 | 0.12 | 0.0764 | 100 | – | – | –
Clc1ccc2[nH]c3c(c2c1)CCNC3c1ccc(Cl)s1 (stereo not drawn) | 100 | 0.177 | 0.044 | 117 | – | – | –
Clc1ccc2[nH]c3c(c2c1)CCNC3c1ccccc1 (stereo not drawn) | 83.9 | 0.248 | 0.0689 | 98 | – | – | –
Oc1ccc2[nH]c3c(c2c1)CCNC3c1cc(Br)ccc1O (stereo not drawn) | 85.9 | 0.455 | 0.194 | 104 | – | – | –
Oc1ccc2[nH]c3c(c2c1)CCNC3c1cccs1 (stereo not drawn) | 44.7 | 0.346 | 0.294 | 97 | – | – | –
Clc1ccc2[nH]c3c(c2c1)CCNC3c1cccs1 (stereo not drawn) | – | 0.724 | 0.602 | 48.6 | 23.7 | – | –

SMILES | Emax ([1]; filed as agonist) [%] | EC50 [2] [µM] | EC50 ([3]; read-out: EC50) [µM] | Emax ([4]; filed as agonist) [%] | Emax [1] [%] | Emax [4] [%] | EC50 ([3]; read-out: pEC50 (converted)) [µM]
Oc1ccc2[nH]c3c(c2c1)CCNC3c1cc(F)ccc1O (stereo not drawn) | 88.4 | 0.216 | 0.077 | 101 | – | – | –
Oc1ccccc1C1NCCc2c1[nH]c1ccc(F)cc21 (stereo not drawn) | 96.2 | 0.026 | 0.0043 | 100 | – | – | –
Clc1ccc2[nH]c3c(c2c1)CCNC3c1ccccc1Br (stereo not drawn) | 91.4 | 0.403 | 0.0952 | 98.4 | – | – | –
Clc1ccc2[nH]c3c(c2c1)CCNC3c1ccncc1Cl (stereo not drawn) | 57.1 | 0.849 | 2.81 | – | – | 27.3 | –
Oc1ccc2[nH]c3c(c2c1)CCNC3c1ccccc1 (stereo not drawn) | – | 2.51 | – | – | 26.3 | – | –
Clc1ccc2[nH]c3c(c2c1)CCNC3c1ccccc1Cl (stereo not drawn) | 95.3 | 0.0128 | 0.0126 | 109 | – | – | –
Cc1cc(C2NCCc3c2[nH]c2ccc(Cl)cc32)sc1Br (stereo not drawn) | 97.1 | 0.776 | 0.173 | 118 | – | – | –
Fc1ncccc1C1NCCc2c1[nH]c1ccc(Cl)cc21 (stereo not drawn) | 56.1 | 0.346 | 1.06 | 75.2 | – | – | –
Oc1ccccc1C1NCCc2c1[nH]c1ccc(Cl)cc21 (stereo not drawn) | 92.7 | 0.0517 | 0.0153 | 103 | – | – | –
Clc1ccc2[nH]c3c(c2c1)CCNC3c1cc2ccccc2s1 (stereo not drawn) | 88 | 0.151 | 0.039 | 105 | – | – | –
Oc1ccc2[nH]c3c(c2c1)CCNC3c1ccccc1F (stereo not drawn) | 91.4 | 0.023 | 0.0132 | 102 | – | – | –
Fc1ccc2[nH]c3c(c2c1)CCNC3c1cccs1 (stereo not drawn) | – | 0.409 | 0.147 | 102 | 36.4 | – | –
Cc1noc(C)c1C1NCCc2c1[nH]c1ccc(F)cc21 (stereo not drawn) | 90.7 | 0.239 | 0.0501 | 111 | – | – | –
Clc1ccc2[nH]c3c(c2c1)CCNC3C1CCCCC1 (stereo not drawn) | 59.9 | 0.295 | 0.0955 | 98.5 | – | – | –
Fc1ccc2[nH]c3c(c2c1)CCNC3C1CCOCC1 (stereo not drawn) | – | 0.354 | 0.891 | 42.3 | 34.1 | – | –
Fc1ccc2[nH]c3c(c2c1)CCNC3c1ccccc1 (stereo not drawn) | 86.5 | 0.0885 | 0.0224 | 102 | – | – | –
Oc1ccc(C2NCCc3c2[nH]c2ccc(Cl)cc32)cc1 (stereo not drawn) | 103 | 0.0938 | 0.105 | 99.4 | – | – | –
Cc1ccc(C2NCCc3c2[nH]c2ccc(F)cc32)cc1 (stereo not drawn) | – | 0.208 | 2.06 | 85.4 | 39.9 | – | –
Fc1ccc2[nH]c3c(c2c1)CCNC3c1cncnc1 (stereo not drawn) | 95.1 | – | – | 101 | – | – | –
Clc1ccc2[nH]c3c(c2c1)CCNC3Cc1ccccc1 (stereo not drawn) | 56.1 | 2.62 | – | – | – | – | –
Oc1ccc2[nH]c3c(c2c1)CCNC3c1ccccc1Cl (stereo not drawn) | – | 1.42 | – | – | 14.3 | – | –
